ChEMBL document CHEMBL3244029, “Synthesis and stereospecific antipsychotic activity of (-)-1-cyclopropylmethyl-4-(3-trifluoromethylthio-5H-dibenzo[a,d]cyclohepten-5-ylidene)piperidine” (J Med Chem, 1977)
Where “and” joins values, the source holds several entries; their conditions need not be identical. Identical values can stand only once. Calls of active or inactive are those of the source. The calls are words filed in the database; no cut-off is given here.

Key:
Saimiri [1] = test: (§1) Antipsychotic activity in squirrel monkey assessed as inhibition of conditioned avoidance response measured as maximum number of shocks possible per 30 mins interval at 1 mg/kg, po 10 days later animal received test compound and again saline measured after 2 to 2.5 hrs of dosing; type: functional
Saimiri [2] = test: as §1, with “6” for “10”, “followed by 0.75 mg/kg, im benztropine 15 mins later” for “and again saline”, “0.5” for “2”, “1” for “2.5”; type: functional
Mus musculus [3] = test: Peripheral anticholinergic activity in po dosed Carworth CF1 mouse assessed as dose required to produce pupil dilation to 1.5 micrometer units in 50% mouse after 5 hrs; type: ADME, organism-based; details: in vivo
Saimiri [4] = test: as §1, with “6” for “10”, “followed by 0.75 mg/kg, im benztropine 15 mins later” for “and again saline”, “1” for “2”, “1.5” for “2.5”; type: functional
Saimiri [5] = test: (§2) Antipsychotic activity in squirrel monkey assessed as inhibition of conditioned avoidance response measured as maximum number of shocks possible per 30 mins interval at 1 mg/kg, po 10 days later animal received test compound and again saline measured after 0.5 to 1 hrs of dosing; type: functional
Saimiri [6] = test: (§3) Antipsychotic activity in squirrel monkey assessed as inhibition of conditioned avoidance response measured as maximum number of shocks possible per 30 mins interval at 1 mg/kg, po 10 days later animal received test compound and again saline measured after 3 to 3.5 hrs of dosing; type: functional
Saimiri [7] = test: Antipsychotic activity in squirrel monkey assessed as inhibition of conditioned avoidance response measured as maximum number of shocks possible per 30 mins interval at 1 mg/kg, po after 210 to 240 mins dosing; type: functional
Saimiri [8] = test: as §1, with “6” for “10”, “followed by 0.75 mg/kg, im benztropine 15 mins later” for “and again saline”, “after 1.5 to” for “after”, “2” for “2 to 2.5”; type: functional
Mus musculus [9] = test: Peripheral anticholinergic activity in po dosed Carworth CF1 mouse assessed as dose required to produce pupil dilation to 1.5 micrometer units in 50% mouse after 2 hrs; type: ADME, organism-based; details: in vivo
Saimiri [10] = test: Antipsychotic activity in squirrel monkey assessed as inhibition of conditioned avoidance response measured as maximum number of shocks possible per 30 mins interval at 0.25 mg/kg, po after 30 to 60 mins dosing; type: functional
Saimiri [11] = test: Antipsychotic activity in squirrel monkey assessed as inhibition of conditioned avoidance response measured as maximum number of shocks possible per 30 mins interval at 0.50 mg/kg, po after 150 to 180 mins dosing; type: functional; details: dose 0.5 mg/kg
Saimiri [12] = test: as §2, with “po 6” for “po 10”, “compound followed by 0.75 mg/kg, im benztropine 15 mins later” for “compound and again saline”, “after 4” for “after 0.5”, “to 4.5” for “to 1”; type: functional
Saimiri [13] = test: Antipsychotic activity in squirrel monkey assessed as inhibition of conditioned avoidance response measured as maximum number of shocks possible per 30 mins interval at 1 mg/kg, po after 180 to 210 mins dosing; type: functional
Saimiri [14] = test: Antipsychotic activity in squirrel monkey assessed as inhibition of conditioned avoidance response measured as maximum number of shocks possible per 30 mins interval at 0.50 mg/kg, po after 90 to 120 mins dosing; type: functional; details: dose 0.5 mg/kg
Saimiri [15] = test: (§4) Antipsychotic activity in squirrel monkey assessed as inhibition of conditioned avoidance response measured as maximum number of shocks possible per 30 mins interval at 1 mg/kg, po 10 days later animal received test compound and again saline measured after 0 to 0.5 hrs of dosing; type: functional
Saimiri [16] = test: Antipsychotic activity in squirrel monkey assessed as inhibition of conditioned avoidance response measured as maximum number of shocks possible per 30 mins interval at 0.50 mg/kg, po after 120 to 150 mins dosing; type: functional; details: dose 0.5 mg/kg
Mus musculus [17] = test: Central anticholinergic activity against physostigmine-induced lethality in Carworth CF1 mouse assessed as animal death at 3.75 mg/kg, po treated 5 hrs before 1.6 mg/kg, sc physostigmine treatment and 2 mg/kg, ip atropine methyl nitrate treated 0.5 hrs before induction (reference value: 0%); type: functional
Saimiri [18] = test: as §1, with “6” for “10”, “followed by 0.75 mg/kg, im benztropine 15 mins later” for “and again saline”, “2.5” for “2”, “3” for “2.5”; type: functional
Saimiri [19] = test: Antipsychotic activity in squirrel monkey assessed as inhibition of conditioned avoidance response measured as maximum number of shocks possible per 30 mins interval at 1 mg/kg, po after 240 to 270 mins dosing; type: functional
Saimiri [20] = test: Antipsychotic activity in squirrel monkey assessed as inhibition of conditioned avoidance response measured as maximum number of shocks possible per 30 mins interval at 1 mg/kg, po 10 days later animal received test compound and again saline measured after 2.5 to 3 hrs of dosing; type: functional
Mus musculus [21] = test: Central anticholinergic activity against physostigmine-induced lethality in Carworth CF1 mouse assessed as animal death at 7.5 mg/kg, po treated 5 hrs before 1.6 mg/kg, sc physostigmine treatment and 2 mg/kg, ip atropine methyl nitrate treated 0.5 hrs before induction (reference value: 0%); type: functional
Mus musculus [22] = test: Central anticholinergic activity against physostigmine-induced lethality in Carworth CF1 mouse assessed as animal death at 30 mg/kg, po treated 5 hrs before 1.6 mg/kg, sc physostigmine treatment and 2 mg/kg, ip atropine methyl nitrate treated 0.5 hrs before induction (reference value: 0%); type: functional
Saimiri [23] = test: Antipsychotic activity in squirrel monkey assessed as inhibition of conditioned avoidance response measured as maximum number of shocks possible per 30 mins interval at 1 mg/kg, po 10 days later animal received test compound and again saline measured after 1.5 to 2 hrs of dosing; type: functional
Saimiri [24] = test: as §4, with “6” for “10”, “followed by 0.75 mg/kg, im benztropine 15 mins later” for “and again saline”; type: functional
Mus musculus [25] = test: Central anticholinergic activity against physostigmine-induced lethality in Carworth CF1 mouse assessed as animal death at 15 mg/kg, po treated 5 hrs before 1.6 mg/kg, sc physostigmine treatment and 2 mg/kg, ip atropine methyl nitrate treated 0.5 hrs before induction (reference value: 0%); type: functional
Saimiri [26] = test: Antipsychotic activity in squirrel monkey assessed as inhibition of conditioned avoidance response measured as maximum number of shocks possible per 30 mins interval at 0.25 mg/kg, po after 0 to 30 mins dosing; type: functional
Saimiri [27] = test: as §1, with “6” for “10”, “followed by 0.75 mg/kg, im benztropine 15 mins later” for “and again saline”; type: functional
Saimiri [28] = test: Antipsychotic activity in squirrel monkey assessed as inhibition of conditioned avoidance response measured as maximum number of shocks possible per 30 mins interval at 0.25 mg/kg, po after 60 to 90 mins dosing; type: functional
Saimiri [29] = test: Antipsychotic activity in squirrel monkey assessed as inhibition of conditioned avoidance response measured as maximum number of shocks possible per 30 mins interval at 1 mg/kg, po 10 days later animal received test compound and again saline measured after 4 to 4.5 hrs of dosing; type: functional
Saimiri [30] = test: Antipsychotic activity in squirrel monkey assessed as inhibition of conditioned avoidance response measured as maximum number of shocks possible per 30 mins interval at 1 mg/kg, po 10 days later animal received test compound and again saline measured after 1 to 1.5 hrs of dosing; type: functional
Saimiri [31] = test: as §3, with “6” for “10”, “followed by 0.75 mg/kg, im benztropine 15 mins later” for “and again saline”; type: functional
Saimiri [32] = test: (§5) Antipsychotic activity in squirrel monkey assessed as inhibition of conditioned avoidance response measured as maximum number of shocks possible per 30 mins interval at 1 mg/kg, po 10 days later animal received test compound and again saline measured after 3.5 to 4 hrs of dosing; type: functional
Saimiri [33] = test: as §5, with “6” for “10”, “followed by 0.75 mg/kg, im benztropine 15 mins later” for “and again saline”; type: functional
Saimiri [34] = test: Antipsychotic activity in po dosed squirrel monkey assessed as inhibition of conditioned avoidance response measured as maximum number of shocks; type: functional
Rattus norvegicus = test: Blockade of po dosed apomorphine-induced stereotyped behavior in Sprague-Dawley rat assessed as continuous sniffing, licking, gnawing, or biting; type: functional
Saimiri [35] = test: Antipsychotic activity in squirrel monkey assessed as inhibition of conditioned avoidance response at 27 mg/kg, po; type: functional, organism-based; parameters: dose 27 mg/kg
Saimiri [36] = test: Antipsychotic activity in squirrel monkey assessed as inhibition of conditioned avoidance response measured as maximum number of shocks possible per 30 mins interval at 1 mg/kg, po administered followed by saline 15 mins later measured after 2 to 2.5 hrs of dosing; type: functional
Saimiri [37] = test: Antipsychotic activity in squirrel monkey assessed as inhibition of conditioned avoidance response measured as maximum number of shocks possible per 30 mins interval at 1 mg/kg, po administered followed by saline 15 mins later measured after 0.5 to 1 hrs of dosing; type: functional
Saimiri [38] = test: Antipsychotic activity in squirrel monkey assessed as inhibition of conditioned avoidance response measured as maximum number of shocks possible per 30 mins interval at 1 mg/kg, po administered followed by saline 15 mins later measured after 1 to 1.5 hrs of dosing; type: functional
Saimiri [39] = test: Antipsychotic activity in squirrel monkey assessed as inhibition of conditioned avoidance response measured as maximum number of shocks possible per 30 mins interval at 1 mg/kg, po administered followed by saline 15 mins later measured after 1.5 to 2 hrs of dosing; type: functional
Saimiri [40] = test: Antipsychotic activity in squirrel monkey assessed as inhibition of conditioned avoidance response measured as maximum number of shocks possible per 30 mins interval at 1 mg/kg, po administered followed by saline 15 mins later measured after 0 to 0.5 hrs of dosing; type: functional
Saimiri [41] = test: Antipsychotic activity in squirrel monkey assessed as inhibition of conditioned avoidance response measured as maximum number of shocks possible per 30 mins interval at 1 mg/kg, po administered followed by saline 15 mins later measured after 3 to 3.5 hrs of dosing; type: functional
Saimiri [42] = test: Antipsychotic activity in squirrel monkey assessed as inhibition of conditioned avoidance response measured as maximum number of shocks possible per 30 mins interval at 1 mg/kg, po administered followed by saline 15 mins later measured after 4 to 4.5 hrs of dosing; type: functional
Saimiri [43] = test: Antipsychotic activity in squirrel monkey assessed as inhibition of conditioned avoidance response measured as maximum number of shocks possible per 30 mins interval at 1 mg/kg, po administered followed by saline 15 mins later measured after 2.5 to 3 hrs of dosing; type: functional
Saimiri [44] = test: Antipsychotic activity in squirrel monkey assessed as inhibition of conditioned avoidance response measured as maximum number of shocks possible per 30 mins interval at 1 mg/kg, po administered followed by saline 15 mins later measured after 3.5 to 4 hrs of dosing; type: functional
[45] = Saimiri, in Primates, po, read-out: ED50

SMILES: FC(F)(F)Sc1ccc2c(c1)C(=C1CCN(CC3CC3)CC1)c1ccccc1C=C2 (single isomer, unassigned; atropisomer)
- %max (Saimiri [1]): 69.3%
- %max (Saimiri [2]): 7.6%
- ED (Mus musculus [3]): > 120 mg/kg
- %max (Saimiri [4]): 5.7%
- %max (Saimiri [5]): 1.7%
- %max (Saimiri [6]): 70.3%
- %max (Saimiri [7]): 100%
- %max (Saimiri [8]): 5.3%
- ED (Mus musculus [9]): > 120 mg/kg
- %max (Saimiri [10]): 0.34%
- %max (Saimiri [11]): 97.4%
- %max (Saimiri [12]): 3.7%
- %max (Saimiri [13]): 100%
- %max (Saimiri [14]): 17.4%
- %max (Saimiri [15]): 0%
- %max (Saimiri [16]): 39.4%
- Activity (Mus musculus [17]): 100%
- %max (Saimiri [18]): 4.3%
- %max (Saimiri [19]): 100%
- %max (Saimiri [20]): 42.7%
- Activity (Mus musculus [21]): 95% and 80%
- Activity (Mus musculus [22]): 85% and 63%
- %max (Saimiri [23]): 52.7%
- %max (Saimiri [24]): 2%
- Activity (Mus musculus [25]): 100% and 85%
- %max (Saimiri [26]): 0.34%
- %max (Saimiri [27]): 8.7%
- %max (Saimiri [28]): 0.68%
- %max (Saimiri [29]): 64.3%
- %max (Saimiri [30]): 42%
- %max (Saimiri [31]): 4%
- %max (Saimiri [32]): 73%
- %max (Saimiri [33]): 3%

SMILES: O=C(CCCN1CCC(O)(c2ccc(Cl)cc2)CC1)c1ccc(F)cc1 [HALOPERIDOL]
- ED50 (Saimiri [34]; [45]): 0.29 mg/kg
- ED50 (Rattus norvegicus): 0.32 mg/kg

SMILES: FC(F)(F)Sc1ccc2c(c1)C(=C1CCN(CC3CC3)CC1)c1ccccc1C=C2
- inhibition (Saimiri [35]): inactive

SMILES: FC(F)(F)Sc1ccc2c(c1)C(=C1CCN(CC3CC3)CC1)c1ccccc1C=C2.O=P(O)(O)O
- %max (Saimiri [36]): 65%
- %max (Saimiri [37]): 9.6%
- %max (Saimiri [38]): 61.3%
- %max (Saimiri [39]): 62%
- ED50 (Saimiri [34]): 0.99 mg/kg
- ED50 (Saimiri [34]; [45]): 0.51 mg/kg
- %max (Saimiri [40]): 0%
- %max (Saimiri [41]): 66.7%
- %max (Saimiri [42]): 82%
- %max (Saimiri [43]): 69%
- %max (Saimiri [44]): 90%
